Measurements: publication PMC8267677, “Inhibitory Mechanisms of Lusianthridin on Human Platelet Aggregation” (International Journal of Molecular Sciences, 2021)

Key:
[1] = target: T1, cyclooxygenase-2 (COX-2) (Homo sapiens, UniProt P35354); test: COX fluorescent inhibitor screening assay kit (Cayman), ADHP/resorufin readout; format: biochemical
T1 construct: gene PTGS2
T1 sequence (P35354 18-604): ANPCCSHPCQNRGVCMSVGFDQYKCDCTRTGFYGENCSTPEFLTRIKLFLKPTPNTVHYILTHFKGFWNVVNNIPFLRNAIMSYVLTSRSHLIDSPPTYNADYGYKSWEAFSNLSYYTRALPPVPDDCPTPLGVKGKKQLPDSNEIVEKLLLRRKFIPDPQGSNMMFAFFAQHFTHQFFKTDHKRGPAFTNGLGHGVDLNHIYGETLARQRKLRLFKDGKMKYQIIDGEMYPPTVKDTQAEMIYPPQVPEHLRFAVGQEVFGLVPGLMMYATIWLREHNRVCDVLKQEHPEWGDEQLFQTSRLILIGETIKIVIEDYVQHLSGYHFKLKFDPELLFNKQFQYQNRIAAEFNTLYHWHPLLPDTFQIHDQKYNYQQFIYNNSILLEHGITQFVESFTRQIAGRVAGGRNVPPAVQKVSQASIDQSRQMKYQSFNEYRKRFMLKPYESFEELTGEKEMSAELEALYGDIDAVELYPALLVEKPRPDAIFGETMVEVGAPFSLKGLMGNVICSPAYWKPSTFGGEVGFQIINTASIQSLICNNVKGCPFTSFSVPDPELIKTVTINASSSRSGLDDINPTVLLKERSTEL

[2] = target: T2, cyclooxygenase-1 (COX-1) (Ovis aries, UniProt P05979); test: as above; format: biochemical
T2 construct: gene PTGS1
T2 sequence (P05979 25-600): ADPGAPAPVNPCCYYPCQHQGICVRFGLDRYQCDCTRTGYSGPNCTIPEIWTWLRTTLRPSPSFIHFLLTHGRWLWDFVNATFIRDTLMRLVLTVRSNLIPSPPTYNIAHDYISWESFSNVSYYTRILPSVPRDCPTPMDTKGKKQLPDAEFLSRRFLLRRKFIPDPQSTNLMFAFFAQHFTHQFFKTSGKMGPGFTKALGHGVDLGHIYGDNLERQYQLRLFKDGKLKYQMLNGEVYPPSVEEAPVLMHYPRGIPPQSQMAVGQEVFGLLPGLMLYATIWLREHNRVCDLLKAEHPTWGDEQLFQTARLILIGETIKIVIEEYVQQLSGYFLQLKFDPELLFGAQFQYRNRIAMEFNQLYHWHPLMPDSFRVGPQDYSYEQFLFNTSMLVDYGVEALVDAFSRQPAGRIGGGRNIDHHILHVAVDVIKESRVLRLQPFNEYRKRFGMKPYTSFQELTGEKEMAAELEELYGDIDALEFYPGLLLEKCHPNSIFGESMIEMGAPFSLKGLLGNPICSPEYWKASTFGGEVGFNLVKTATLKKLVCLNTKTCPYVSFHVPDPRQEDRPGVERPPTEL

- IC50 [1]: 0.17 µM
- IC50 [2]: 10.8 ± 1.12 µM
SMILES: COc1cc(O)c2c(c1)CCc1cc(O)ccc1-2 [lusianthridin]
